Target: T1, hTAS1R2/hTAS1R3(r1–575) (UniProt Q8TE23+Q923K1, A645S/A698V/A702T/A793V/A807V/C582S/C678S/E725V/E827G/F612A/F622V/F805L/I617V/I740A/I779T/I803L/K818R/L735F/L823M/L825Q/M644L/M706V/M729T/N675D/Q717H/Q757R/Q795R/Q831P/R632Q/R634S/R762C/S576L/S610P/S635P/S637R/S679G/T588V/T694M/T813A/V584A/V718M/V723A/V738A/V744T/V821L/W599R/W676R/W824R/Y598H/Y680C/Y794L)
T1 construct: hTAS1R3(r1–575) consists of the N-terminal extracellular domain of rTAS1R3 and the TMD of hTAS1R3; expressed in transfected cells
T1 sequence (Q8TE23 20-839, stated change not applied): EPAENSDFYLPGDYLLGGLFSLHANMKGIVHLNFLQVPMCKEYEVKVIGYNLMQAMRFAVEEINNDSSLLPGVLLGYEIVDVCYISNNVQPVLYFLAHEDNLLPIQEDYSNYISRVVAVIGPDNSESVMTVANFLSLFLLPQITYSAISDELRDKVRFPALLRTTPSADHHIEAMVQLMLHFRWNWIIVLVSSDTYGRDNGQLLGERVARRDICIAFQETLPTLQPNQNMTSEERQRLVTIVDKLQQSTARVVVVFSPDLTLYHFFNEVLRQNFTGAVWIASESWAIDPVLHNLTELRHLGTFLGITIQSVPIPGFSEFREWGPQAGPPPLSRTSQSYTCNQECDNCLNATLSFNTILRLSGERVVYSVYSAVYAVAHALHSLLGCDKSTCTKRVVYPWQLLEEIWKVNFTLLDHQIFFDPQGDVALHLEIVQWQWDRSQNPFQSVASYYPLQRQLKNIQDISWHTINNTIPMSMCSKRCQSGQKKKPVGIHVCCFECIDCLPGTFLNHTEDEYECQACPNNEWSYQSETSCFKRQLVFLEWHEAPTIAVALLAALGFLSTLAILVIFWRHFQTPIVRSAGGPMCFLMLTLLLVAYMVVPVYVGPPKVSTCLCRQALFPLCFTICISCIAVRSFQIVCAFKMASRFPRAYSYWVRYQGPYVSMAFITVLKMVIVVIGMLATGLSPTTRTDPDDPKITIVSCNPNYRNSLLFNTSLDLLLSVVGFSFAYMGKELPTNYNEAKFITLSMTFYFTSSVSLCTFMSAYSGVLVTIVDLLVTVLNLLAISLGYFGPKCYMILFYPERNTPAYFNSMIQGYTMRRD
T1 sequence (Q923K1 other isoform, or with tags, fused parts or gaps with the stated changes): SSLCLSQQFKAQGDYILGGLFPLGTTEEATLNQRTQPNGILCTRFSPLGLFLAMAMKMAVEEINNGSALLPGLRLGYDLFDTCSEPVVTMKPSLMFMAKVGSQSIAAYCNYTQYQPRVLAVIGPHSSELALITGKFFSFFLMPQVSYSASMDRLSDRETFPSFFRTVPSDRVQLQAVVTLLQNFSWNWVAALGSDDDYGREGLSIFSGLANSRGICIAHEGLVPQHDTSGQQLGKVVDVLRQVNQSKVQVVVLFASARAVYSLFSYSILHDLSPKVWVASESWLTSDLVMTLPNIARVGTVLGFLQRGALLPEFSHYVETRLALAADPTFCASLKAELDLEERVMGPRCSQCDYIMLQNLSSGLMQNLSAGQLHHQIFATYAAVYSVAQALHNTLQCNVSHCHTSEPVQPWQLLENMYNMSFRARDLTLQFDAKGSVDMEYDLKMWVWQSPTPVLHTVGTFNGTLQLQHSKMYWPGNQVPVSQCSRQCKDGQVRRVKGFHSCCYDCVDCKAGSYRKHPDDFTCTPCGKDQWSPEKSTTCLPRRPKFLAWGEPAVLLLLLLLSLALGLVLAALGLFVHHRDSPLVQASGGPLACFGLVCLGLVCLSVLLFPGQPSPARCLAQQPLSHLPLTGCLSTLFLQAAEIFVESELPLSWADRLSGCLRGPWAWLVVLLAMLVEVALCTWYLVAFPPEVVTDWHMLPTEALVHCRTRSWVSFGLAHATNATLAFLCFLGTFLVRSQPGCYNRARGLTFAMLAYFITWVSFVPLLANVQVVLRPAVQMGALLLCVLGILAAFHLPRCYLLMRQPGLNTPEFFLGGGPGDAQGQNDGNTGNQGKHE
Test: Calcium assay, chimeric TAS1R3 co-expressed with hTAS1R2
Format: cell-based, human, rat
From the text: Chimeric Gα proteins, such as Gα16Gust44, Gα16Gi3 or Gα15i2, are widely used in the functional expression of TAS1R receptors ([Backes et al., 2015]; [Suess et al., 2015]; [Toda et al., 2021], [Toda et al., 2013], [Toda et al., 2018]; [Zhang et al., 2008]). Chimeric Gα15i2 (([Toda et al., 2013]), Supplementary data) was generated by replacing the last five residues of the C-terminal tail of rat Gα15i2 (EINLL) (UniProt number G3V6N8; https://www.uniprot.org/uniprot/) with the counterpart sequence from human GNAI2 (DCGLF) (UniProt number P04899-1) and cloning into the pcDNA3.1/Hygro vector (Invitrogen, Thermo Fisher Scientific, Illkirch, France) between the HindIII and NotI restriction sites, resulting in the plasmid pcDNA3.1-Gα15i2. Chimeric Gα16Gust44 construct have already been reported ([Raliou et al., 2011]). Briefly, Gα16Gust44 was generated by replacing the C-terminal of Gα16 with the C-terminal 44 residues of gustducin. As previously described, hTAS1R1 was amplified from human fungiform papillae cDNA and cloned and inserted into pcDNA3 (Invitrogen), generating pcDNA3-TAS1R1-WT (wild-type) ([Raliou et al., 2011]). […]

`OC[C@H]1O[C@H](O[C@]2(CCl)O[C@H](CCl)[C@@H](O)[C@@H]2O)[C@H](O)[C@@H](O)[C@H]1Cl` [sucralose, reference compound] showed an EC50 (sucralose alone, Fig. 3B) of 485 ± 138 µM.

`N[C@@H](CCC(=O)N[C@@H](CS)C(=O)NCC(=O)O)C(=O)O` [GSH, γ-L-glutamyl-L-cysteinyl-glycine] was tested, and the “fold decrease in the EC50 value of sucralose” value (in the presence of 10 mM GSH) was 5.2 fold.

Source: PMC12615753, “Glutathione as a taste modulator: molecular mechanisms of interaction with umami and sweet taste receptors” (Food Chemistry: Molecular Sciences, 2025)
